Reference: patent US4895931A, “Phospholipase A2 -inhibiting peptides” (Kyowa Hakko Kogyo Co., Ltd., priority 1988, dated 1990)
Where a SMILES comes first, the peptide text is derived from it.

Target: T1, porcine pancreas PLA2 (Sus scrofa, UniProt P00592)
T1 construct: purchased Sigma Chemical Co. P6534; host or cells: porcine pancreas
Test: PLA2-inhibiting activity (release of [1-14C] arachidonic acid from labelled phosphatidylcholine)
Format: biochemical
Details: for Inhibition ratio (Inhibition rate of test compound/Inhibition rate of Compound (IV)): Amount of sample: 100 mg, relative to Compound (IV) = 1.00
Procedure: A test compound was dissolved in 280 μl of 0.1M Tris-hydrochloride buffer (pH 8.8) containing 10 mM calcium chloride. To the solution was added a solution of 20 ng of porcine pancreas PLA2 (Sigma Chemical Co., catalog No. P6534) in 10 μl of the buffer having the same composition as above, followed by incubation at 37° C. for 10 minutes. To the resulting mixture was added a solution of 0.1 μCi of α-palmitoyl-β[1-^14 C] arachidonylphosphatidylcholine (54 μCi/μmol, NEN Research Products Co.) in 10 μl of the same buffer as above wherein micelles were formed, followed by incubation at 37° C. for 10 minutes. Then, 3 ml of a Dale reagent solution [2-propanol :n-heptane :1M sulfuric acid=40:10:1 v/v mixture; Methods in Enzymology 14, 167 (1969)] was added to stop the reaction, and 1.5 ml of n-heptane and 1 ml of water were added, followed by shaking. Radioactivity of the free [1-^14 C] arachidonic acid extracted to the heptane layer was measured. The value of this specific radioactivity is referred to as "a". Further, "b" and "c" refer to the specific radioactivity of the heptane layer obtained by adding the same amount of the buffer in place of the test compound solution and that of the heptane layer obtained by adding the same amount of the buffer in place of the test compound and PLA2, respectively. The inhibition rate (x) was calculated by the following equation: [formula]

T1 sequence (P00592 23-146): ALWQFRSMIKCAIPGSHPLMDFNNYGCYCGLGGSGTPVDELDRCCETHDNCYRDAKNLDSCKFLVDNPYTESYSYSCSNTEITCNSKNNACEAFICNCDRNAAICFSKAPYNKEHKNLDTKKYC

CC[C@H](C)[C@H](NC(=O)[C@H](CCCNC(=N)N)NC(=O)[C@@H](NC(=O)[C@H](CC(C)C)NC(=O)[C@H](C)NC(=O)[C@H](CCCCN)NC(=O)[C@H](Cc1c[nH]cn1)NC(=O)[C@H](CCCNC(=N)N)NC(=O)[C@@H](NC(=O)CNC(=O)[C@@H](NC(=O)CN)C(C)C)[C@@H](C)O)[C@@H](C)CC)C(=O)N[C@@H](CCSC)C(=O)N[C@H](C(=O)N[C@@H](CO)C(=O)N[C@@H](CCCNC(=N)N)C(=O)O)C(C)C [X] (H-GVGTRHKALIRIMVSR-OH; N-terminus and C-terminus assumed)
Inhibition ratio (Inhibition rate of test compound/Inhibition rate of Compound (IV)): 1.19

CC(C)C[C@H](NC(=O)[C@H](C)NC(=O)[C@H](CCCCN)NC(=O)[C@H](CCCCN)NC(=O)[C@H](CC(C)C)NC(=O)[C@@H](NC(=O)[C@H](CCC(=O)O)NC(=O)[C@H](CC(=O)O)NC(=O)[C@H](CC(C)C)NC(=O)[C@@H]1CCCN1C(=O)[C@@H](N)CCCCN)[C@@H](C)O)C(=O)N[C@H](C(=O)NCC(=O)N[C@@H](Cc1c[nH]cn1)C(=O)N[C@@H](CC(C)C)C(=O)N[C@@H](CCC(=O)O)C(=O)O)[C@@H](C)O [IV] (H-KPLDETLKKALTGHLE-OH)
PLA2-inhibiting activity (in words): medium | Inhibition ratio (Inhibition rate of test compound/Inhibition rate of Compound (IV)): 1.00

CC[C@H](C)[C@H](N)C(=O)N[C@@H](CCC(=O)O)C(=O)N[C@H](C(=O)N[C@@H](CC(C)C)C(=O)N[C@@H](C)C(=O)N[C@@H](CO)C(=O)N[C@@H](CCCNC(=N)N)C(=O)N[C@H](C(=O)N[C@@H](CC(N)=O)C(=O)N[C@@H](CCCCN)C(=O)N[C@@H](CCC(=O)O)C(=O)N[C@H](C(=O)N[C@@H](CCCNC(=N)N)C(=O)N[C@@H](CC(=O)O)C(=O)N[C@H](C(=O)O)[C@@H](C)CC)[C@@H](C)CC)[C@@H](C)O)[C@@H](C)CC [V] (H-IEILASRTNKEIRDI-OH)
Inhibition ratio (Inhibition rate of test compound/Inhibition rate of Compound (IV)): 0.56

CC[C@H](C)[C@H](NC(=O)[C@H](C)NC(=O)[C@@H](NC(=O)[C@H](CC(C)C)NC(=O)[C@H](CS)NC(=O)[C@@H](N)CCCCN)[C@@H](C)O)C(=O)N[C@H](C(=O)N[C@@H](CCCCN)C(=O)N[C@@H](CS)C(=O)N[C@@H](C)C(=O)N[C@H](C(=O)N[C@@H](CO)C(=O)N[C@@H](CCCCN)C(=O)N1CCC[C@H]1C(=O)N[C@@H](C)C(=O)O)[C@@H](C)O)C(C)C [VIII] (H-KCLTAIVKCATSKPA-OH; N-terminus and C-terminus assumed)
Inhibition ratio (Inhibition rate of test compound/Inhibition rate of Compound (IV)): 1.06

CC[C@H](C)[C@H](N)C(=O)N[C@@H](CCCCN)C(=O)N[C@@H](C)C(=O)N[C@@H](C)C(=O)N[C@@H](Cc1ccc(O)cc1)C(=O)N[C@@H](CC(C)C)C(=O)N[C@@H](CCC(N)=O)C(=O)N[C@@H](CCC(=O)O)C(=O)N[C@H](C(=O)NCC(=O)N[C@@H](CCCCN)C(=O)N1CCC[C@H]1C(=O)N[C@@H](CC(C)C)C(=O)N[C@@H](CC(=O)O)C(=O)N[C@@H](CCC(=O)O)C(=O)N[C@H](C(=O)N[C@@H](CC(C)C)C(=O)N[C@@H](CCCCN)C(=O)N[C@@H](CCCCN)C(=O)N[C@@H](C)C(=O)N[C@@H](CC(C)C)C(=O)N[C@H](C(=O)NCC(=O)N[C@@H](Cc1c[nH]cn1)C(=O)N[C@@H](CC(C)C)C(=O)N[C@@H](CCC(=O)O)C(=O)O)[C@@H](C)O)[C@@H](C)O)[C@@H](C)O [III] (H-IKAAYLQETGKPLDETLKKALTGHLE-OH)
Inhibition ratio (Inhibition rate of test compound/Inhibition rate of Compound (IV)): 0.20

CC[C@H](C)[C@H](N)C(=O)N[C@@H](CCCCN)C(=O)N[C@@H](C)C(=O)N[C@@H](Cc1ccccc1)C(=O)N[C@@H](Cc1ccc(O)cc1)C(=O)N[C@@H](CCC(N)=O)C(=O)N[C@@H](CCCCN)C(=O)N[C@@H](CCSC)C(=O)N[C@@H](Cc1ccc(O)cc1)C(=O)NCC(=O)N[C@H](C(=O)N[C@@H](CO)C(=O)N[C@@H](CC(C)C)C(=O)N[C@@H](CS)C(=O)N[C@@H](CCC(N)=O)C(=O)N[C@@H](C)C(=O)O)[C@@H](C)CC [XII] (H-IKAFYQKMYGISLCQA-OH)
IC50 compared with that of lipocortin (in words): almost equal to that of lipocortin | IC50 (read-out: IC50 (concentration required for inhibiting the PLA2 activity by 50%) (converted)): 1.07 µM

B1: rLC: lipocortin prepared using Escherichia coli according to the method of Wallner, et al. (protein, UniProt P04083 2-346, looked up)
Annexin A1: AMVSEFLKQAWFIENEEQEYVQTVKSSKGGPGSAVSPYPTFNPSSDVAALHKAIMVKGVDEATIIDILTKRNNAQRQQIKAAYLQETGKPLDETLKKALTGHLEEVVLALLKTPAQFDADELRAAMKGLGTDEDTLIEILASRTNKEIRDINRVYREELKRDLAKDITSDTSGDFRNALLSLAKGDRSEDFGVNEDLADSDARALYEAGERRKGTDVNVFNTILTTRSYPQLRRVFQKYTKYSKHDMNKVLDLELKGDIEKCLTAIVKCATSKPAFFAEKLHQAMKGVGTRHKALIRIMVSRSEIDMNDIKAFYQKMYGISLCQAILDETKGDYEKILVALCGGN
modifications: recombinant, E. coli
IC50 (concentration required for inhibiting the PLA2 activity by 50%): 1.5 mg/L
